# Experiments:
# [1] = test system: diabetic ob/ob mice; assay: Hypoglycemic effect in diabetic ob/ob mice; assay type: in vivo, mouse
# Description: Hypoglycemic Effect in Diabetic OB/OB Mice
# Procedure: In each study, male or female ob/ob (C57 B1/6J) mice and their mean litermates (ob/+ or +/+, Jackson Laboratories) ages 2 to 5 months (10 to 65 g) were randomized according to plasma glucose into 4 groups of 10 mice. The mice were housed 5 per cage and were maintained on normal rodent chow with water ad libitum. Mice receive compound daily by gavage (suspended in 0.5 ml of 0.5% methyl cellulose); dissolved in the drinking water; or admixed in the diet. The dose of compounds given ranges from 2.5 to 200 mg/kg body weight/day. Body weight of fed animals was measured at the beginning of each week and doses for the entire week were calculated using this weight and were expressed in terms of the active moiety of the compound. Control mice receive vehicle only. […]
# Measurements: The plasma was isolated by centrifugation and the concentration of glucose was measured enzymatically on an Abbott V. P. Analyzer and the plasma concentration of insulin was determined by radioimmunoassay (Heding, 1972)
# Analysis of variance followed by Dunnett's Comparison Test (one-tailed) was used to estimate the significant difference between the plasma glucose values from the control group and the individual compound treated groups (CMS SAS Release 5.18). A compound will be considered active if the difference has a p<0.05.
SMILES,melting point,other results
"CC(C)(C)c1ccc(-c2nc(COc3cccc4cc(NS(=O)(=O)C(F)(F)F)ccc34)cs2)cc1 [Example 47, N-{5-[2-(4-tert-Butyl-phenyl)-thiazol-4-ylmethoxy]-naphthalen-2-yl}-C,C,C-trifluoro-methanesulfonamide]",174 to 175 °C,–
"O=S(=O)(Nc1ccc2c(OCc3csc(C4COc5ccccc5O4)n3)cccc2c1)C(F)(F)F (stereo not drawn) [Example 50, N-{5-[2-(2,3-Dihydro-benzo[1,4]dioxin-2-yl)-thiazol-4-ylmethoxy]-naphthalen-2-yl}-C,C,C-trifluoro-methanesulfonamide]",183 to 185 °C,–
"O=S(=O)(Nc1ccc2c(OCc3csc(-c4ccccc4)n3)cccc2c1)C(F)(F)F [Example 51, C,C,C-Trifluoro-N-[5-(2-phenyl-thiazol-4-ylmethoxy)-naphthalen-2-yl]-methanesulfonamide]",89 to 99 °C,–
"O=S(=O)(Nc1ccc2c(OCc3csc(-c4ccccc4Cl)n3)cccc2c1)C(F)(F)F [Example 54, N-{5-[2-(2-Chloro-phenyl)-thiazol-4-ylmethoxy]-naphthalen-2-yl}-C,C,C-trifluoromethanesulfonamide]",128 to 129 °C,–
"O=S(=O)(Nc1ccc2c(OCc3csc(-c4ccc(OC(F)(F)F)cc4)n3)cccc2c1)C(F)(F)F [Example 55, C,C,C-Trifluoro-N-{5-[2-(4-trifluoromethoxy-phenyl)-thiazol-4-yl-methoxy]-naphthalen-2-yl}-methanesulfonamide]",131 to 132 °C,–
"CC(C)(C)c1ccc(C2(COc3cccc4cc(NS(=O)(=O)C(F)(F)F)ccc34)N=CNO2)cc1 (stereo not drawn) [Example 59, N-{5-[5-(4-tert-Butyl-phenyl)-[1,2,4]-oxadiazol-5-ylmethoxy)-naphthalen-2-yl}-C,C,C-trifluoro-methanesulfonamide]",154 to 155 °C,–
"O=S(=O)(Nc1ccc2c(OCc3noc(C45CC6CC(CC(C6)C4)C5)n3)cccc2c1)C(F)(F)F [Example 60, N-[5-(5-Adamantan-1-yl-[1,2,4]oxadiazol-3-ylmethoxy)-naphthalen-2-yl]-C,C,C-trifluoro-methanesulfonamide]",60 to 62 °C,–
"N#Cc1ccc(C2(COc3cccc4cc(NS(=O)(=O)C(F)(F)F)ccc34)N=CNO2)cc1 (stereo not drawn) [Example 61, N-{5-[5-(4-cyano-phenyl)-[1,2,4]-oxadiazol-5-ylmethoxy)-naphthalen-2-yl}-C,C,C-trifluoro-methanesulfonamide]",184 to 185 °C,–
"COc1cccc(C2(COc3cccc4cc(NS(=O)(=O)C(F)(F)F)ccc34)N=CNO2)c1 (stereo not drawn) [Example 62, N-{5-[5-(3-methoxy-phenyl)-[1,2,4]-oxadiazol-5-ylmethoxy)-naphthalen-2-yl}-C,C,C-trifluoro-methanesulfonamide]",138 to 140 °C,–
"COc1ccc(C2(COc3cccc4cc(NS(=O)(=O)C(F)(F)F)ccc34)N=CNO2)cc1 (stereo not drawn) [Example 64, N-{5-[5-(4-methoxy-phenyl)-[1,2,4]-oxadiazol-5-ylmethoxy)-naphthalen-2-yl}-C,C,C-trifluoro-methanesulfonamide]",146 to 148 °C,–
"O=S(=O)(Nc1ccc2c(OCc3nc(-c4ccc(F)cc4)no3)cccc2c1)C(F)(F)F [Example 65, C,C,C-Trifluoro-N-{5-[3-(4-fluoro-phenyl)-[1,2,4]oxadiazol-5-yl-methoxy]-naphthalen-2-yl}-methanesulfonamide]",131 to 132 °C,–
"O=S(=O)(Nc1ccc2c(OCc3nc(-c4cccc(C(F)(F)F)c4)no3)cccc2c1)C(F)(F)F [Example 66, C,C,C-Trifluoro-N-{5-[3-(3-trifluoromethyl-phenyl)-[1,2,4]oxadiazol-5-ylmethoxy]-naphthalen-2-yl}-methanesulfonamide]",155 to 156 °C,–
"O=S(=O)(Nc1ccc2c(OCc3nc4ccccc4s3)cccc2c1)C(F)(F)F [Example 78, N-[5-(Benzothiazol-2-ylmethoxy)-naphthalen-2-yl]-C,C,C-trifluoro-methanesulfonamide]",190 to 192 °C,–
"Cc1oc(-c2ccccc2)nc1COc1cccc2cc(NS(=O)(=O)C(F)(F)F)ccc12 [Example 79, N-[5-(5-methyl-2-phenyl-oxazol-4-ylmethoxy)naphthalen-2-yl]C,C,C-trifluoromethanesulfonamide]",192 to 194 °C,–
"O=S(=O)(Nc1ccc2c(OCc3coc(-c4ccccc4)n3)cccc2c1)C(F)(F)F [Example 80, N-[5-(2-phenyl-oxazol-4-ylmethoxy)naphthalen-2-yl]C,C,C-trifluoromethanesulfonamide]",195 to 197 °C,–
Cc1oc(-c2ccc(C(F)(F)F)cc2)nc1COc1cccc2cc(NS(=O)(=O)C(F)(F)F)ccc12 [Example 81],–,REDUCTION IN PLASMA GLUCOSE Day 1 (6 hr) p.o. ([1]; 5 mg/kg): −28% (5 mg/kg); REDUCTION IN PLASMA GLUCOSE Day 3 (6 hr) p.o. ([1]; 5 mg/kg): −33% (5 mg/kg)
"Cc1oc(-c2ccc(F)cc2)nc1COc1cccc2cc(NS(=O)(=O)C(F)(F)F)ccc12 [Example 82, N-{5-[5-methyl-2-(4-fluoro-phenyl)-oxazol-4-ylmethoxy]naphthalen-2-yl}C,C,C-trifluoromethanesulfonamide]",178 to 180 °C,–
"CC(C)(C)c1ccc(-c2nc(COc3cccc4cc(NS(=O)(=O)C(F)(F)F)ccc34)co2)cc1 [Example 85, N-{5-[2-(4-tert-Butyl-phenyl)-oxazol-4-ylmethoxy]naphthalen-2-yl}C,C,C-trifluoromethanesulfonamide]",165 to 167 °C,–
"O=S(=O)(Nc1ccc2c(OCc3coc(-c4ccc(C(F)(F)F)cc4)n3)cccc2c1)C(F)(F)F [Example 87, N-{5-[2-(4-trifluoromethyl-phenyl)-oxazol-4-ylmethoxy]naphthalen-2-yl}C,C,C-trifluoromethanesulfonamide]",205 to 207 °C,–
"Cc1ccccc1-c1nc(COc2cccc3cc(NS(=O)(=O)C(F)(F)F)ccc23)co1 [Example 88, N-[5-[2-o-tolyl-oxazol-4-ylmethoxy)naphthalen-2-yl]C,C,C-trifluoromethanesulfonamide]",127 to 130 °C,–

# The next lines start with results.
melting point,SMILES,other results
123 to 125 °C,"O=S(=O)(Nc1ccc2c(OCc3ccc(-c4ccccc4)cc3F)cccc2c1)C(F)(F)F [Example 4, C,C,C-Trifluoro-N-[5-(3-fluoro-biphenyl-4-ylmethoxy)-naphthalen-2-yl]-methanesulfonamide]",REDUCTION IN PLASMA GLUCOSE Day 1 (6 hr) p.o. ([1]; 10 mg/kg): −28% (10 mg/kg); REDUCTION IN PLASMA GLUCOSE Day 3 (6 hr) p.o. ([1]; 10 mg/kg): −37% (10 mg/kg)
170 to 171 °C,"O=S(=O)(Nc1ccc2c(OCc3ccc(-c4cccc(Cl)c4)cc3)cccc2c1)C(F)(F)F [Example 25, N-[5-(3′-Chloro-biphenyl-4-ylmethoxy)-naphthalen-2-yl]-C,C,C-trifluoromethanesulfonamide]",REDUCTION IN PLASMA GLUCOSE Day 1 (6 hr) p.o. ([1]; 10 mg/kg): −22% (10 mg/kg); REDUCTION IN PLASMA GLUCOSE Day 3 (6 hr) p.o. ([1]; 10 mg/kg): −24% (10 mg/kg)
151 to 153 °C,"O=S(=O)(Nc1ccc2c(OCc3csc(-c4ccc(Cl)cc4)n3)cccc2c1)C(F)(F)F [Example 44, N-{5-[2-(4-Chloro-phenyl)-thiazol-4-ylmethoxy]-naphthalen-2-yl}-C,C,C-trifluoro-methanesulfonamide]",–
170 to 173 °C,"O=S(=O)(Nc1ccc2c(OCc3csc(-c4ccc(F)cc4)n3)cccc2c1)C(F)(F)F [Example 45, C,C,C-Trifluoro-N-{5-[2-(4-fluoro-phenyl)-thiazol-4-ylmethoxy]-naphthalen-2-yl}-methanesulfonamide]",–
139 to 140 °C,"O=S(=O)(Nc1ccc2c(OCc3nc(-c4ccc(F)cc4)sc3Br)cccc2c1)C(F)(F)F [Example 56, N-{5-[5-Bromo-2-(4-fluoro-phenyl)-thiazol-4-ylmethoxy]-naphthalen-2-yl}-C,C,C-trifluoromethanesulfonamide]",–
159 to 161 °C,"NC(=O)Nc1ccc2c(OCc3ccccc3-c3ccccc3)cccc2c1 [Example 74, [5-(Biphenyl-2-ylmethoxy)-naphthalen-2-yl]-urea]",–
200 °C (dec.),"COc1ccc(-c2ccc(Cl)cc2)cc1COc1cccc2cc(NC(N)=O)ccc12 [Example 76, [5-(4′-Chloro-4-methoxy-biphenyl-3-ylmethoxy)-naphthalen-2-yl]-urea]",–
182 °C (dec.),"NC(=O)Nc1ccc2c(OCc3ccc(-c4ccc(Cl)cc4)cc3)cccc2c1 [Example 77, [5-(4′-Chloro-biphenyl-4-ylmethoxy)-naphthalen-2-yl]-urea]",–
140 to 142 °C,"O=S(=O)(Nc1ccc2c(OCc3ccc4ccccc4c3)cccc2c1)C(F)(F)F [Example 83, N-[5-(Naphthalen-2-ylmethoxy)-naphthalen-2-yl]-C,C,C-trifluoro-methanesulfonamide]",–
198 to 200 °C,"O=S(=O)(Nc1ccc2c(OCc3coc(-c4ccc(Cl)cc4)n3)cccc2c1)C(F)(F)F [Example 84, N-{5-[2-(4-Chloro-phenyl)-oxazol-4-ylmethoxy]naphthalen-2-yl}C,C,C-trifluoromethanesulfonamide]",–
205 to 207 °C,"O=S(=O)(Nc1ccc2c(OCc3coc(-c4ccc(Br)cc4)n3)cccc2c1)C(F)(F)F [Example 86, N-{5-[2-(4-Bromo-phenyl)-oxazol-4-ylmethoxy]naphthalen-2-yl}C,C,C-trifluoromethanesulfonamide]",–

# — patent publication US6933322B2, “Substituted naphthylenes for the treatment of non-insulin dependent diabetes mellitus” (Wyeth, priority 2002, dated 2005)
